A short description of data set [1]: Foam height, high shear (Waring blender). It counts as physicochemical. As to conditions: for Foam volume (ml) 5 min / Foam volume (ml) Initial: 0.05 wt % in deionized water; for Foam volume (ml) 5 min: after 5 minutes; for Foam volume (ml) Initial: blended on High 30 seconds; for % decrease: foam volume, initial to 5 min. As for the experimental part: A 0.05 wt % (actives basis) solution of the test surfactant was made in deionized water. 250 ml of the test solution was added the beaker of a Waring blender, capped, and then blended on High for 30 seconds and immediately transferred to a 1 L graduated cylinder. The total volume of foam plus liquid, as well as the liquid layer alone was recorded. The foam and liquid volumes were recorded again after 5 minutes.

Data set [2] can be described thus: Salt thickening, viscosity of SLS/SLES/amine oxide formulation. It counts as physicochemical. The settings on record: shear rate 3/s. The method, then: Linear amine oxides tend to increase the viscosity of a formulation containing NaCl in a dose-dependent manner. The viscosity (cP; shear rate 3/s) of a simple formulation was measured as the salt concentration varied from 0 to 5 wt %.

A short description of data set [3]: Draves Wetting Test (ASTM D2281-68). It counts as physicochemical. As to conditions: 0.05 wt % (actives basis) in DI water; average of 3 measurements. The method, then:
A 0.05 wt % (actives basis) solution of amine oxide in deionized (DI) water was used to determine the Draves wet-out time (WOT) in seconds. 0.75 g of surfactant was dispersed in 1,500 ml of DI water. The wet-out time (WOT) in seconds is recorded in Table 14 (average of 3 measurements). LAO is Lauramine oxide (linear hydrophobe), Sigma catalog number 40236.

Data set [4] is described as follows: Stain removal in cold water, brightness L*. The settings on record: compared to LAO; additive 0.05% active. The method, then:
Amine oxides with linear and branched hydrophobes were compared in a screen for stain removal in cold water. Simple laundry liquid formulations were made that included only surfactants and builder.
Standard stain swatches were purchased from Testfabrics, Inc. (West Pittston, Pa.). STC/CFT PC-S-216 is diluted red lipstick on poly/cotton (65/35), and STC/CFT PC-S-132 is high discriminative sebum (synthetic) with pigment on poly/cotton, both made by Center for Testmaterials BV (CFT; The Netherlands). The swatches were pre-cut into 2 inch squares. The test formulation was diluted with DI water to 0.06% total surfactant to make the wash solution. Additives were added at a final concentration of 0.05% active in the wash solution. Stained fabric swatches were added to the wash solution, washed and rinsed at 20° C., and air-dried. The average swatch brightness (L*) for each treatment, and standard deviation, are reported for 3 replicates. […] All treatments are brighter than the untreated stain swatches. The nonionics NPE and LAE7 removed the lipstick and sebum stains to the same brightness.

A short description of data set [5]: Foaming of amine oxide added to commercial laundry liquid (Waring blender). It counts as physicochemical. More on the design: Difference: unit: ml. The settings on record: for Difference: initial minus 5 min foam volume. The method, then: The surface foam volume and foam persistence of solutions of the amine oxides with linear and branched hydrophobes from Examples […] were compared. A commercial laundry liquid was diluted in deionized water according to the dosing instructions; 4.2 ml/L Persil Original. The diluted detergent was supplemented with 0%, 2%, 5% (based on wt laundry liquid) of LAO or Branched C12 AO, (2,4-diethyl-N,N-dimethyloctan-1-amine oxide, Example 66), and the solutions mixed briefly and used immediately. 250 ml of each test solution was added the beaker of a Waring blender, capped, and then blended on High for 30 seconds and immediately transferred to a 1 L graduated cylinder. The total volume of foam plus liquid, as well as the liquid layer alone was recorded. The foam and liquid volumes were recorded again after 5 minutes. All tests were performed in triplicate.

The next data set concerns zein protein. From the text:
Amine oxides with linear and branched hydrophobes from Examples 65 and 66 were compared in a screen to predict mildness of surfactants. There is a correlation between the ability of a surfactant to denature a protein and the skin irritation potential of that surfactant. The relationship is believed to result from surfactant binding to proteins like keratin, followed by the denaturation of these proteins, leading to skin irritation. A common screening test involves measuring the amount of zein (a corn protein which is insoluble in water) solubilized by a surfactant solution, the Zein Solubilization Test (Moore et al., 2003 and references therein)
For the test, 0.0750 g of zein protein is transferred into a 1.5 mL centrifuge tube. To this 1.5 mL of 1% surfactant solution is added, mixed, and placed in a 30 C incubator with mild stirring for 30 minutes. After 30 minutes has elapsed, the tube is centrifuged for 30 min at 3600 rpm. The solution is filtered through a pre-weighed 8 micron filter paper, and then dried overnight in a 50° C. oven. The insoluble zein residue is then weighed and the wt % Zein dissolved is calculated using the equation below. Each solution is analyzed in triplicate. The Zein score is normalized to a standard included in each set of tests, in this case LAE10.
% zein dissolved=(total zein added−total zein after drying Total zein added)×100

Data set [6] is described as follows: High-shear foaming of N-alkyl-N-methylglucamines in commercial blender. It counts as physicochemical. As to conditions: 1 wt % test substance in 10 wt % SDS, diluted to 0.05 wt % surfactant. The method, then: The high-shear foaming behavior of linear and branched N-alkyl-N glucamines was investigated, as this can have an impact on their performance in home care applications. […] The solutions were heated to 80° C., ultrasonicated for 1 h, and cooled to room temperature. Finally, the as-obtained solutions were diluted with MilliQ water to obtain a 0.05 wt % surfactant solution. In agreement with the literature on branched hydrophobes, the high-shear foaming tests performed in the commercial blender indicate that the linear N-decyl-N-methylglucamine (IC10 NMG) solution foams relatively more than its branched counterpart solution. For all solutions, the initial foam volume is between 40 and 53 mL. Lauramine oxide (LAO) appears to be foamier than the N-alkyl-N-methylglucamines.

The mark [7] stands for this setting: NaCl 0 wt %, 1.4% amine oxide, 4.3% SLS, 4.3% SLES.
Where [8] appears, read: Persil Original 4.2 ml/L + 2% additive.

Like-named read-outs stand apart in the source and are kept apart here.

For `CCCCC(CC)CC(C)C[N+](C)(C)[O-]` (stereo not shown) [Example 65, 4-ethyl-N,N-2-trimethyloctan-1-amine oxide], the “Foam volume (ml) 5 min” value in data set [1] was 0 mL. For the same compound, the “Foam volume (ml) Initial” value in data set [1] was 267 mL. In addition, the “% decrease” value in data set [1] stood at 100%. The Viscosity in data set [2] (setting [7]) is on record as 2 cP; in data set [2] (NaCl 0.5 wt %), 7 cP; in data set [2] (NaCl 1.0 wt %), 36 cP; in data set [2] (NaCl 1.5 wt %), 257 cP; in data set [2] (NaCl 2.0 wt %), 2,050 cP; in data set [2] (NaCl 2.5 wt %), 3,635 cP. Moreover, the Viscosity in data set [2] (NaCl 3.0 wt %) is given as 3,459 cP; in data set [2] (NaCl 3.5 wt %), 2,021 cP; in data set [2] (NaCl 4.0 wt %) it was 670 cP; in data set [2] (NaCl 4.5 wt %), 288 cP; in data set [2] (NaCl 5.0 wt %) it was 148 cP. The compound also showed a Wet out time in data set [3] greater than 300 s. Further, the “foam in the wash solution” value in data set [4] is on record as “very little foam”.

Consider `CCCCC(CC)CC(CC)C[N+](C)(C)[O-]` (stereo not shown) [Example 66, 2,4-diethyl-N,N-dimethyloctan-1-amine oxide], for which, in data set [5] (Persil + 2% additive), the “Foam volume After 5 min” value amounted to 303 mL and the Difference is on record as 257. Further, the Difference in data set [5] (Persil + 5% additive) was found to be 280. The “Initial foam volume” value in data set [5] (setting [8]) turned out to be 560 mL. In data set [1], the “Foam volume (ml) 5 min” value amounted to 0 mL, the “Foam volume (ml) Initial” value amounted to 370 mL and the “% decrease” value worked out at 100%. Moreover, in data set [3], the Wet out time was greater than 300 s. Besides, in the data set with zein protein (corn, 30 min, 1 %), the “Zein score - normalized to LAE10” value turned out to be 0.018.

For `CCCCCCCCCCCC[N+](C)(C)[O-]` [LAO, N,N-dimethyl laurylamine oxide, reference compound], the “Foam volume After 5 min” value in data set [5] (Persil + 2% additive) came to 473 mL; in data set [5] (Persil + 5% additive), 507 mL. The Difference in data set [5] (Persil + 2% additive) was determined as 54; in data set [5] (Persil + 5% additive), 6. Also, the “Initial foam volume” value in data set [5] (setting [8]) was found to be 527 mL; in data set [5] (Persil Original 4.2 ml/L + 5% additive), 513 mL. Besides, the “Foam volume after 5 seconds stirring at speed 1” value in data set [6] came out at 53 mL. Further, in data set [6], the “Foam volume after 5 minutes settling” value worked out at 50 mL. In addition, the “Foam volume (ml) 5 min” value in data set [1] was 500 mL. Also, in data set [1], the “Foam volume (ml) Initial” value amounted to 523 mL. Further, the “% decrease” value in data set [1] came out at 4%. Moreover, the Viscosity in data set [2] (setting [7]) is listed as 2 cP; in data set [2] (NaCl 0.5 wt %), 2 cP; in data set [2] (NaCl 1.0 wt %), 11 cP; in data set [2] (NaCl 1.5 wt %), 115 cP; in data set [2] (NaCl 2.0 wt %), 1,494 cP; in data set [2] (NaCl 2.5 wt %), 7,562 cP. The Viscosity in data set [2] (NaCl 3.0 wt %) is recorded as 17,343 cP; in data set [2] (NaCl 3.5 wt %) it was 25,302 cP; in data set [2] (NaCl 4.0 wt %) it was 27,585 cP; in data set [2] (NaCl 4.5 wt %) it was 24,918 cP; in data set [2] (NaCl 5.0 wt %), 19,368 cP. The same compound registered a Wet out time in data set [3] of 33 s. Moreover, the “Zein score - normalized to LAE10” value in the data set on zein protein (1% surfactant solution, 30 C, 30 minutes) amounted to 4.212.

The values are drawn from patent publication US20190218170A1, “BRANCHED TRIALKYLAMINE PRECURSORS, INTERMEDIATES, PRODUCTS MADE THEREFROM AND PROCESSES OF MANUFACTURE” (priority 2018, published 2019).
